Test results: patent US20210378281A1, “INHIBITION OF SENSORY IRRITATION DURING CONSUMPTION OF NON-SMOKEABLE TOBACCO PRODUCTS” (priority 2010, published 2021)
“And” between values parts separate entries of the source, which are not always exact repeats. Equal values may be shown once. “Also recorded” adds a separate entry of the source.

Legend:
mouth of participants = experiment: threshold of irritation from camphor, oral sip and swish of camphor solution; type: in vivo, human; parameters: key to irritation felt at 200 ppm / irritation felt at 300 ppm / irritation felt at 400 ppm / irritation felt at 1000 ppm / irritation felt at 2000 ppm / irritation felt at 4000 ppm / irritation felt at 6000 ppm: Y: the participant felt irritation at the indicated concentration; N: no irritation was felt
Procedure: A further study was conducted to determine the threshold at which camphor itself would cause sensory irritation.
Each test used two milliliters (2 ml) of a camphor solution. The camphor was dissolved in ethanol and further diluted in water. Participants received sequentially increasing concentration of camphor. Nine participants received samples including food grade racemic camphor, with concentrations of 200, 300, 400, […] 1000, 2000, 4000, 6000 ppm (corresponding to about […] per sample, respectively).
Participants wore nose clips during evaluation. Each participant sipped the sample, swished it in the mouth for 10 seconds, then spat it out. Each participant then indicated whether irritation was perceived. Between evaluations of each sample, participants rinsed with water and waited for one minute.
The left-most column indicates the participant number of each individual participant.

[1] = test system: tongues of human volunteers; experiment: pre-treatment with camphor on sensory irritation from nicotine, tongues of human volunteers; type: in vivo; conditions: camphor 25, 50 or 100 ppm, 20 microliters on strip for 30 seconds before 0.1-0.3% nicotine
Description: FIGS. 1 and 2 show the results of a study on the effect of pre-treatment with camphor on sensory irritation from nicotine. Camphor was applied to tongues of human volunteers prior to application of a nicotine solution. Randomized sides of tongues were selected for application of 20 microliters of 0 ppm, 25 ppm, 50 ppm, or 100 ppm of camphor on a strip (thus, about […], respectively) for 30 seconds. Then, the subjects sipped, rinsed, then spit 0.1%, 0.2%, or 0.3% of a nicotine solution for a 5 second application. Participants were then asked which side of the tongue has the strongest burning sensation. Responses were collected both immediately (within 5 seconds) (FIG. 1) and after 30 seconds (FIG. 2). Controls received no camphor, and a baseline was established at zero camphor.

[2] = test system: mouth of subjects using oral tobacco; experiment: snus pouches with camphor, perceived burning in the mouth, 2AFC design; type: in vivo, human
Procedure: A further study was conducted to determine if camphor affected perceived burning in the mouth of subjects using oral tobacco. Participants were given two snus pouch samples to use simultaneously, one in each side of the mouth. One sample was a control pouch with no camphor added and the other contained various concentrations of camphor ([…], based on tobacco weight, respectively). The hand-made test samples were constructed using unflavored tobacco (12% oven volatiles) to prevent any possible interference of the flavor system with the objective of the study. In preparing the pouches, the camphor was dissolved in 95% ethanol, with the control pouches receiving the ethanol only. Ten (10) microliters of one of the solutions was applied to each sample pouch (5 microliters per side). […] Responses were recorded on paper by the experimenter. […] Following each evaluation, participants were asked to give details regarding where the burning was felt and to provide any open-ended comments regarding their experience, which were recorded on paper by the experimenter. Participants repeated the sensory evaluation procedures an additional six (6) times, with a maximum of two (2) pairs being evaluated each day.

nerve fibers = conditions: isolated mouse trachea model; cited from earlier work
TRPV1 receptors = conditions: increasing their responsiveness; J. Neurophysiol., 91: 1482-1491, 2004; cited from earlier work
TRPA1 receptors = TRPA1 receptors (Homo sapiens, UniProt O75762); conditions: cited from earlier work
Sequence of TRPA1 receptors (O75762 whole entry): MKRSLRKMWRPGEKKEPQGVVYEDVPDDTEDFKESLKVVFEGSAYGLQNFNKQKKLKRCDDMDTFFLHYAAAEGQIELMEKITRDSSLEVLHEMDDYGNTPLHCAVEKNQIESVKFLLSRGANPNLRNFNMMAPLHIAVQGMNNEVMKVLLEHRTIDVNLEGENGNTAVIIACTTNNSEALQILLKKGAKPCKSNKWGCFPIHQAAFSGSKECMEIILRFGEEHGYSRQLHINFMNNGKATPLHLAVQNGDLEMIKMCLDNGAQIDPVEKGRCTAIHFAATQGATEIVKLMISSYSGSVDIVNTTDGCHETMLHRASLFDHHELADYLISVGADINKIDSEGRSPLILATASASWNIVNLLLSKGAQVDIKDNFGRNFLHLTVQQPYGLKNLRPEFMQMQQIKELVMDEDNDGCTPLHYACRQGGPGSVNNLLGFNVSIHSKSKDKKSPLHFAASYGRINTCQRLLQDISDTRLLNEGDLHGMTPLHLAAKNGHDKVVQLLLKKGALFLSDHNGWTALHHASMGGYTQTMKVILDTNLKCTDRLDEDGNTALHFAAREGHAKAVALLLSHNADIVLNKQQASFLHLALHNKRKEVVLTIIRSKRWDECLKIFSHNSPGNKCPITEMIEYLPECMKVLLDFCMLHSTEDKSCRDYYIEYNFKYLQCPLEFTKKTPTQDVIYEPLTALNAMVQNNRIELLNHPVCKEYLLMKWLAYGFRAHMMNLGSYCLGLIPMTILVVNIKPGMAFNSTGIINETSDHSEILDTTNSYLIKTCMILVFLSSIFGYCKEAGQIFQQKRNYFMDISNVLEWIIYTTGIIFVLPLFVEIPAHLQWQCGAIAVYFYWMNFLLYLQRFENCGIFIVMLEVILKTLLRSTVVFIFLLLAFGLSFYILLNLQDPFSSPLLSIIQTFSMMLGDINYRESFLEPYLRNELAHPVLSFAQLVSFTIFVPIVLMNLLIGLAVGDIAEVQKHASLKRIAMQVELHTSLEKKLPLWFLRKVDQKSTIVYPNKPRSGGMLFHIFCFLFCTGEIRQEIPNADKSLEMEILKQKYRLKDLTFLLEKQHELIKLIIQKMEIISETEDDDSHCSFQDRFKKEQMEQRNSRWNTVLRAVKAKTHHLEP

## CC12CCC(CC1=O)C2(C)C (racemic) [camphor]
Mouth of participants; 200 ppm camphor, 2 ml solution, swished 10 seconds, one line per participant
  irritation felt at 200 ppm: Y (3×) and N (6×)
Mouth of participants; 300 ppm camphor, 2 ml solution, swished 10 seconds, one line per participant
  irritation felt at 300 ppm: Y (3×) and N (6×)
Mouth of participants; 400 ppm camphor, 2 ml solution, swished 10 seconds, one line per participant
  irritation felt at 400 ppm: Y (4×) and N (4×)
Mouth of participants; 1000 ppm camphor, 2 ml solution, swished 10 seconds, one line per participant
  irritation felt at 1000 ppm: N and Y (2×)
Mouth of participants; 2000 ppm camphor, 2 ml solution, swished 10 seconds, one line per participant
  irritation felt at 2000 ppm: Y
Mouth of participants; 4000 ppm camphor, 2 ml solution, swished 10 seconds, one line per participant
  irritation felt at 4000 ppm: Y
Mouth of participants; 6000 ppm camphor, 2 ml solution, swished 10 seconds, one line per participant
  irritation felt at 6000 ppm: Y
Mouth of participants; a few participants, sensitive only at higher concentrations
  concentration at which a few participants were sensitive: 1000-2000 ppm
Mouth of participants; most participants
  concentration at which most participants perceived tingling: 200-300 ppm
Mouth of participants; n=9
  mean threshold for producing irritation: 655 ppm
Mouth of participants; one line per participant, concentrations in ppm
  Notes (sensation described by participant): Tingling at 300, tingling no burning; also recorded: No Burning, slight tingling on edges; also recorded: Some burning and stinging at 200,
[1]; response after 30 seconds
  perceived burning from nicotine, 30 seconds after initial exposure: significantly reduced perceived burning from nicotine
[1]; response immediately (within 5 seconds)
  perceived burning from nicotine, immediately: significantly reduced perceived burning from nicotine
[2]; 12 nanogram (50 ppm) camphor pouch, asked at 2, 5 and 10 minutes
  time at which the effect was strongest: 10 min
[2]; 12 nanogram (corresponding to 50 ppm) camphor per pouch versus control pouch
  reduction of oral burning from snus pouch: most effective in reducing oral burning
Nerve fibers
  inhibition of activation of nerve fibers induced by the nicotinic agonist nicotine: effectively inhibit activation of nerve fibers

## CN1CCCC1c1cccnc1 (stereo not drawn) [nicotine]
TRPV1 receptors
  sensitization of TRPV1 receptors: sensitize TRPV1 receptors
TRPA1 receptors
  sensitization of TRPA1 receptors: as well as TRPA1 receptors
